Six molecules from US12252524B2, “GIP/GLP1 co-agonist compounds” (Eli Lilly and Company, priority 2018, dated 2025) can be followed below.

In test [1] the target is human GLP-1 receptor (GLP-1R) (Homo sapiens, UniProt P43220). In words: cAMP pharmacological functional assay in presence of casein, hGLP-1R. The following applies: HEK293 cells expressing hGLP-1R, 0.1% Casein, geometric mean; read-out: hGLP1R cAMP Rel EC50 nM (SEM, n). It counts as cell-based.
The target in test [2] is T1, gastric inhibitory peptide receptor (GIPR) (Homo sapiens, UniProt P48546).
T1 sequence (P48546 22-466): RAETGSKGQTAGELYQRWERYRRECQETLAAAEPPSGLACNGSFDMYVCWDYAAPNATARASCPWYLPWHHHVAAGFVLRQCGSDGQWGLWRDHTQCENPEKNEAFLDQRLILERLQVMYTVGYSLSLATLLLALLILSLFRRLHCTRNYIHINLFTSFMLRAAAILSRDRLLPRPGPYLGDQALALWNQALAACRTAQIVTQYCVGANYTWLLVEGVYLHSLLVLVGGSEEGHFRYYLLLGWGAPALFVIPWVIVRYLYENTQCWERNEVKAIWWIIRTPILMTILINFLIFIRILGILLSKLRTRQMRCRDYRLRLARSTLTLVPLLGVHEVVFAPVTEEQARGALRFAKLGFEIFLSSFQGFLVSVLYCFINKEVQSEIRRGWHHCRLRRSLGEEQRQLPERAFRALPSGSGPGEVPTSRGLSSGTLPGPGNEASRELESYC
In words: cAMP pharmacological functional assay in presence of casein, hGIPR. It counts as cell-based. The conditions noted are these: HEK293 cells expressing hGIPR, 0.1% Casein, geometric mean; read-out: hGIPR cAMP Rel EC50 nM (SEM, n).

Numbered stars: 1 amine (or outer) side, 2 acyl side, 3 side chain; on linkers, the order of the positions; unused ones are H or OH. Square brackets hold non-standard residues; d marks the D form. Side chains are listed from the residue outwards. Peptide text beside a SMILES is read from it. * marks the point of attachment. C20 diacid = O=C(O)CCCCCCCCCCCCCCCCCCC(=O)*; C18 diacid = O=C(O)CCCCCCCCCCCCCCCCC(=O)*; αMePhe(2-F) = C[C@](N)(Cc1ccccc1F)C(=O)O; γGlu = O=C(O)[C@H](CCC(=O)[*:2])N[*:1]; αMeF = C[C@](N)(Cc1ccccc1)C(=O)O; 3Pal = N[C@@H](Cc1cccnc1)C(=O)O; αMeL = CC(C)C[C@](C)(N)C(=O)O; Orn = NCCC[C@H](N)C(=O)O; AEEA = NCCOCCOCC(=O)O; Aib = CC(C)(N)C(=O)O

Sequence of human GLP-1 receptor (GLP-1R) (P43220 24-463): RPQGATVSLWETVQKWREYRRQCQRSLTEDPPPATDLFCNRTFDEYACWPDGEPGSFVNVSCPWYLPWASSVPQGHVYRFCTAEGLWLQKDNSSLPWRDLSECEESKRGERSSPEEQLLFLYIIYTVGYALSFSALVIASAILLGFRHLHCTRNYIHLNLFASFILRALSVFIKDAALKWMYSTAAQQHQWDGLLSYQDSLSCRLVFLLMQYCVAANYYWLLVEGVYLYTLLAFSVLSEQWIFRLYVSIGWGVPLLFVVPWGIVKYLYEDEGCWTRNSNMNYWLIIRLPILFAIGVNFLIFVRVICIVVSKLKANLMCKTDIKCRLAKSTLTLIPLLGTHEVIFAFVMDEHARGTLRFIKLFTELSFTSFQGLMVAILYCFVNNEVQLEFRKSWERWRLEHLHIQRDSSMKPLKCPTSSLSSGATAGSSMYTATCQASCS

The EC50 is the midpoint of the concentration-response curve. As for `CC[C@H](C)[C@H](NC(=O)[C@H](CC(C)C)NC(=O)[C@H](Cc1ccc(O)cc1)NC(=O)[C@H](CCC(=O)O)NC(=O)[C@@H](NC(=O)[C@H](Cc1ccccc1)NC(=O)[C@H](C)NC(=O)C(C)(C)NC(=O)[C@H](CCC(N)=O)NC(=O)[C@H](C)NC(=O)[C@H](CCCCNC(=O)COCCOCCNC(=O)COCCOCCNC(=O)CC[C@H](NC(=O)CCCCCCCCCCCCCCCCCCC(=O)O)C(=O)O)NC(=O)[C@H](CCCCN)NC(=O)[C@H](CC(=O)O)NC(=O)[C@H](CC(C)C)NC(=O)[C@H](CC(C)C)NC(=O)[C@@H](NC(=O)[C@H](CO)NC(=O)[C@H](Cc1cccnc1)NC(=O)[C@H](CC(=O)O)NC(=O)[C@H](CO)NC(=O)[C@@H](NC(=O)[C@](C)(Cc1ccccc1)NC(=O)[C@@H](NC(=O)CNC(=O)[C@H](CCC(=O)O)NC(=O)C(C)(C)NC(=O)[C@@H](N)Cc1ccc(O)cc1)[C@@H](C)O)[C@@H](C)O)[C@@H](C)CC)[C@@H](C)CC)C(=O)N[C@@H](CCC(=O)O)C(=O)NCC(=O)NCC(=O)N1CCC[C@H]1C(=O)N[C@@H](CO)C(=O)N[C@@H](CO)C(=O)NCC(=O)N[C@@H](C)C(=O)N1CCC[C@H]1C(=O)N1CCC[C@H]1C(=O)N1CCC[C@H]1C(=O)N[C@@H](CO)C(N)=O` [Example 132] (H-Y[Aib]EGT[αMeF]TSD[3Pal]SILLDKK([AEEA-AEEA-γGlu-C20 diacid])AQ[Aib]AFIEYLIEGGPSSGAPPPS-NH2), the values for the EC50 in test [1] and in test [2] were 0.26 nM and 0.0657 nM, respectively.

For `CC[C@H](C)[C@H](NC(=O)[C@H](CC(C)C)NC(=O)[C@H](Cc1ccc(O)cc1)NC(=O)[C@H](CCC(=O)O)NC(=O)[C@@H](NC(=O)[C@H](Cc1ccccc1)NC(=O)[C@H](C)NC(=O)C(C)(C)NC(=O)[C@H](CCC(N)=O)NC(=O)[C@H](C)NC(=O)[C@H](CCCCNC(=O)COCCOCCNC(=O)[C@H]1CC[C@H](CNC(=O)CC[C@H](NC(=O)CCCCCCCCCCCCCCCCCCC(=O)O)C(=O)O)CC1)NC(=O)[C@H](CCCCN)NC(=O)[C@H](CC(=O)O)NC(=O)[C@H](CC(C)C)NC(=O)[C@H](CC(C)C)NC(=O)[C@@H](NC(=O)[C@H](CO)NC(=O)[C@H](Cc1ccc(O)cc1)NC(=O)[C@H](CC(=O)O)NC(=O)[C@H](CO)NC(=O)[C@@H](NC(=O)[C@H](Cc1ccccc1)NC(=O)[C@@H](NC(=O)CNC(=O)[C@H](CCC(=O)O)NC(=O)C(C)(C)NC(=O)[C@@H](N)Cc1ccc(O)cc1)[C@@H](C)O)[C@@H](C)O)[C@@H](C)CC)[C@@H](C)CC)C(=O)N[C@@H](CCC(=O)O)C(=O)NCC(=O)NCC(=O)N1CCC[C@H]1C(=O)N[C@@H](CO)C(=O)N[C@@H](CO)C(=O)NCC(=O)N[C@@H](C)C(=O)N1CCC[C@H]1C(=O)N1CCC[C@H]1C(=O)N1CCC[C@H]1C(=O)N[C@@H](CO)C(N)=O` [Example 111], the EC50 came to 0.308 nM in test [1] and 0.141 nM in test [2].

`CC[C@H](C)[C@H](NC(=O)[C@H](CC(C)C)NC(=O)[C@H](Cc1ccc(O)cc1)NC(=O)[C@@H](CCC(=O)O)NC(=O)[C@@H](NC(=O)[C@H](Cc1ccccc1)NC(=O)[C@@H](NC(=O)C(C)(C)NC(=O)[C@H](CCC(N)=O)NC(=O)[C@H](C)NC(=O)[C@H](CCCCNC(=O)COCCOCCNC(=O)COCCOCCNC(=O)CC[C@H](NC(=O)CCCCCCCCCCCCCCCCC(=O)O)C(=O)O)NC(=O)[C@H](CCC(=O)O)NC(=O)[C@H](CC(=O)O)NC(=O)[C@H](CC(C)C)NC(=O)[C@](C)(CC(C)C)NC(=O)[C@@H](NC(=O)[C@H](CO)NC(=O)[C@H](Cc1c[nH]cn1)NC(=O)[C@H](CC(=O)O)NC(=O)[C@H](CO)NC(=O)[C@@H](NC(=O)[C@](C)(Cc1ccccc1F)NC(=O)[C@@H](NC(=O)CNC(=O)[C@H](CCC(=O)O)NC(=O)C(C)(C)NC(=O)[C@@H](N)Cc1ccc(O)cc1)[C@@H](C)O)[C@@H](C)O)[C@@H](C)CC)[C@@H](C)O)[C@@H](C)CC)C(=O)N[C@@H](CCC(=O)O)C(=O)NCC(=O)NCC(=O)N1CCC[C@H]1C(=O)N[C@@H](CO)C(=O)N[C@@H](CO)C(=O)NCC(=O)N[C@@H](C)C(=O)N1CCC[C@H]1C(=O)N1CCC[C@H]1C(=O)N1CCC[C@H]1C(=O)N[C@@H](CO)C(N)=O` [Example 169] (H-Y[Aib]EGT[αMePhe(2-F)]TSDHSI[αMeL]LDEK([AEEA-AEEA-γGlu-C18 diacid])AQ[Aib]TFI[dE]YLIEGGPSSGAPPPS-NH2): the EC50 stood at 3.37 nM in test [1] and 0.86 nM in test [2].

Take `CC[C@H](C)[C@H](NC(=O)[C@H](CC(C)C)NC(=O)[C@H](Cc1ccc(O)cc1)NC(=O)[C@@H](CCC(=O)O)NC(=O)[C@@H](NC(=O)[C@H](Cc1ccccc1)NC(=O)[C@H](CCC(=O)O)NC(=O)C(C)(C)NC(=O)[C@H](CCC(N)=O)NC(=O)[C@H](C)NC(=O)[C@H](CCC(N)=O)NC(=O)[C@H](CCCN)NC(=O)[C@H](CC(=O)O)NC(=O)[C@H](CC(C)C)NC(=O)[C@](C)(CC(C)C)NC(=O)[C@@H](NC(=O)[C@H](CO)NC(=O)[C@H](Cc1ccc(O)cc1)NC(=O)[C@H](CC(=O)O)NC(=O)[C@H](CO)NC(=O)[C@@H](NC(=O)[C@](C)(Cc1ccccc1F)NC(=O)[C@@H](NC(=O)CNC(=O)[C@H](CCC(=O)O)NC(=O)C(C)(C)NC(=O)[C@@H](N)Cc1ccc(O)cc1)[C@@H](C)O)[C@@H](C)O)[C@@H](C)CC)[C@@H](C)CC)C(=O)N[C@@H](CCC(=O)O)C(=O)NCC(=O)NCC(=O)N1CCC[C@H]1C(=O)N[C@@H](CO)C(=O)N[C@@H](CO)C(=O)NCC(=O)N[C@@H](C)C(=O)N1CCC[C@H]1C(=O)N1CCC[C@H]1C(=O)N1CCC[C@H]1C(=O)N[C@@H](CO)C(=O)N[C@@H](CS)C(N)=O` [Example 283] (H-Y[Aib]EGT[αMePhe(2-F)]TSDYSI[αMeL]LD[Orn]QAQ[Aib]EFI[dE]YLIEGGPSSGAPPPSC-NH2): the EC50 in test [1] was determined as 0.155 nM; in test [2] it was 0.301 nM.

Consider `CC[C@H](C)[C@H](NC(=O)[C@H](CC(C)C)NC(=O)[C@H](Cc1ccc(O)cc1)NC(=O)[C@@H](CCC(=O)O)NC(=O)[C@@H](NC(=O)[C@H](Cc1ccccc1)NC(=O)[C@@H](NC(=O)C(C)(C)NC(=O)[C@H](CCC(N)=O)NC(=O)[C@H](C)NC(=O)[C@H](CCCCNC(=O)COCCOCCNC(=O)COCCOCCNC(=O)CCCCCCCCCCCCCCCCCCC(=O)O)NC(=O)[C@H](CCC(=O)O)NC(=O)[C@H](CC(=O)O)NC(=O)[C@H](CC(C)C)NC(=O)[C@](C)(CC(C)C)NC(=O)[C@@H](NC(=O)[C@H](CO)NC(=O)[C@H](Cc1c[nH]cn1)NC(=O)[C@H](CC(=O)O)NC(=O)[C@H](CO)NC(=O)[C@@H](NC(=O)[C@](C)(Cc1ccccc1F)NC(=O)[C@@H](NC(=O)CNC(=O)[C@H](CCC(=O)O)NC(=O)C(C)(C)NC(=O)[C@@H](N)Cc1ccc(O)cc1)[C@@H](C)O)[C@@H](C)O)[C@@H](C)CC)[C@@H](C)O)[C@@H](C)CC)C(=O)N[C@@H](CCC(=O)O)C(=O)NCC(=O)NCC(=O)N1CCC[C@H]1C(=O)N[C@@H](CO)C(=O)N[C@@H](CO)C(=O)NCC(=O)N[C@@H](C)C(=O)N1CCC[C@H]1C(=O)N1CCC[C@H]1C(=O)N1CCC[C@H]1C(=O)N[C@@H](CO)C(N)=O` [Example 174] (H-Y[Aib]EGT[αMePhe(2-F)]TSDHSI[αMeL]LDEK([AEEA-AEEA-C20 diacid])AQ[Aib]TFI[dE]YLIEGGPSSGAPPPS-NH2), for which the half-maximal effective concentration (EC50) turned out to be 0.472 nM in test [1] and 0.217 nM in test [2].

Take `CC[C@H](C)[C@H](NC(=O)[C@H](CCCCN)NC(=O)[C@H](CC(=O)O)NC(=O)[C@H](CC(C)C)NC(=O)[C@H](CC(C)C)NC(=O)[C@@H](NC(=O)[C@H](CO)NC(=O)[C@H](Cc1ccc(O)cc1)NC(=O)[C@H](CC(=O)O)NC(=O)[C@H](CO)NC(=O)[C@@H](NC(=O)[C@](C)(Cc1ccccc1)NC(=O)[C@@H](NC(=O)CNC(=O)[C@H](CCC(=O)O)NC(=O)C(C)(C)NC(=O)[C@@H](N)Cc1ccc(O)cc1)[C@@H](C)O)[C@@H](C)O)[C@@H](C)CC)C(=O)N[C@@H](C)C(=O)N[C@@H](CCC(N)=O)C(=O)NC(C)(C)C(=O)N[C@@H](C)C(=O)N[C@@H](Cc1ccccc1)C(=O)N[C@H](C(=O)N[C@@H](CCC(=O)O)C(=O)N[C@@H](Cc1ccc(O)cc1)C(=O)N[C@@H](CC(C)C)C(=O)N[C@H](C(=O)N[C@@H](CCCCNC(=O)COCCOCCNC(=O)COCCOCCNC(=O)CC[C@H](NC(=O)CCCCCCCCCCCCCCCCCCC(=O)O)C(=O)O)C(=O)NCC(=O)NCC(N)=O)[C@@H](C)CC)[C@@H](C)CC` [Example 95] (H-Y[Aib]EGT[αMeF]TSDYSILLDKIAQ[Aib]AFIEYLIK([AEEA-AEEA-γGlu-C20 diacid])GG-NH2): the EC50 in test [1] came out at 1.01 nM; in test [2], 1.17 nM.
